Test [1] concerns dopaminergic neurons (primary rat embryonic midbrain culture) infected with lentivirus encoding human A53T α-synuclein. Nature of the test: Primary neuronal toxicity assay. It counts as cell-based. As to conditions: for decrease of α-synuclein neurotoxicity in dopaminergic neurons (TH+ cells): E17 rat midbrain culture, A53T α-synuclein lentivirus, 3 days treatment. An excerpt:
Indatraline decreased α-synuclein neurotoxicity in dopaminergic neurons. Midbrain cultures will be prepared from E17 rat ventral mesencephalon as described in a published protocol (Xu, J.; Kao, S. Y.; Lee, F. J.; Song, W.; Jin, L. W.; Yankner, B. A., Dopamine-dependent neurotoxicity of alpha-synuclein: a mechanism for selective neurodegeneration in Parkinson disease. Nat Med 2002, 8, (6), 600-6; incorporated herein by reference). Cultured cells were infected with a recombinant lentivirus encoding human A53T α-synuclein (A53T) or a control virus (none). Cells were treated with various concentrations of indatraline (black bars) for 3 days. Cells were then fixed and immunostained for Microtubule-associated protein 2, which stains all neurons, and Tyrosine Hydroxylase, a marker for dopaminergic neurons. Toxicity of A53T α-synuclein toward dopaminergic neurons was determined by calculating the percentage neurons positive for tyrosine hydroxylase (TH^+ cells).

Test [2] addresses T1, purified recombinant human α-synuclein (Homo sapiens, UniProt P37840). Nature of the test: α-synuclein structure formation/aggregation in the presence of HFIP (Thioflavin T fluorescence, fluorescence polarization). As to conditions: α-synuclein 20 μM, 25 mM Tris pH 8.0, 3.1% HFIP, room temperature, compound 50-400 μM, Thioflavin T fluorescence and/or fluorescence polarization. The format is binding. As to the method: HFIP induces rapid structure formation and aggregation of α-synuclein (Munishkina et al., Biochemistry 42:2720-30, 2003; Maiti, Apetri et al., J Am Chem Soc, 126:2399-408, 2004; each of which is incorporated herein by reference). Compounds were incubated with purified recombinant human α-synuclein (20 μM) in a buffer containing HFIP (25 mM Tris, pH 8.0, 3.1% HFIP) at room temperature. Structure formation was monitored by Thioflavin T fluorescence and fluorescence polarization. Thioflavin T fluorescence can be used to measure aggregation of amyloidogenic proteins, including α-synuclein (excitation, 440 nm; emission, 495 nm) (Naiki et al., Anal. Biochem., 177:244-9, 1989; Conway et al., Biochemistry, 39:2552-63, 2000; each of which is incorporated herein by reference). Average molecular size was monitored by fluorescence polarization using human α-synuclein covalently conjugated to Alexa Fluor 594 (excitation, 546 nm; emission, 620 nm). Assays were performed in a 384-well plate and readings taken directly from each well over time.

The target in test [3] is T1, purified recombinant human α-synuclein. Nature of the test: α-synuclein aggregation in aqueous solution (Thioflavin T fluorescence, fluorescence polarization). It counts as biochemical. Conditions: α-synuclein 70 μM, 20 mM Bis-tris propane pH 7.4, 100 mM LiCl, 37° C., gentle agitation, Thioflavin T fluorescence and/or fluorescence polarization. How it is done:
Compounds were incubated with purified recombinant human α-synuclein (70 μM) in an aqueous buffer system (20 mM Bis-tris propane, pH 7.4, 100 mM LiCl) at 37° C. with gentle agitation. Structure formation was monitored by Thioflavin T fluorescence and/or fluorescence polarization. Thioflavin T fluorescence can be used to measure aggregation of amyloidogenic proteins, including α-synuclein (excitation, 440 nm; emission, 495 nm) (Naiki, H.; Higuchi, K.; Hosokawa, M.; Takeda, T., Fluorometric determination of amyloid fibrils in vitro using the fluorescent dye, thioflavin T1. Anal Biochem 1989, 177, (2), 244-9; incorporated herein by reference). Average molecular size was monitored by fluorescence polarization using human α-synuclein covalently conjugated to Alexa Fluor 594 (excitation, 546 nm; emission, 620 nm) (Luk, K. C.; Hyde, E. G.; Trojanowski, J. Q.; Lee, V. M., Sensitive fluorescence polarization technique for rapid screening of alpha-synuclein oligomerization/fibrillization inhibitors. Biochemistry 2007, 46, (44), 12522-9; incorporated herein by reference).

A further test addresses alpha-synuclein (Homo sapiens, UniProt P37840). Nature of the test: Solution NMR binding studies. An excerpt: Importantly, stabilization of such off-pathway conformers can reduce the rate of α-synuclein fibrillization. For instance, sequence changes that promote formation of helical conformers also reduce the rate of α-synuclein fibrillization. A novel screen was devised to identify small molecules capable of promoting off-pathway conformers of α-synuclein. A screen of 640 central nervous system (CNS-active) compounds, including many approved CNS drugs, identified an active compound, indatraline (INDAT), a monoamine reuptake inhibitor that has been widely used as a research tool.

Test [4] concerns α-synuclein-induced retinal degeneration in transgenic Drosophila (human A30P α-synuclein). Nature of the test: Drosophila retinal assay. The format is in vivo. Conditions: transgenic Drosophila expressing human A30P α-synuclein in retina, drug in food. An excerpt:
Human A30P α-synuclein expression was directed to the retina with the glass multimer reporter (GMR) promoter. The transgene induces progressive retinal degeneration. Dry food (Formula 4-24; Carolina Biological Supply) was rehydrated with water or an aqueous solution of drug. Drug concentration refers to the final concentration of compound in the aqueous solution. Transgenic female flies less than 12-hours-old were placed on either untreated or drug-embedded food. For analysis of retinal degeneration, fly heads were annealed to a glass microscope, then eyes were transilluminated following optical neutralization of the corneas with immersion oil and examined under a 100× lens (Franceschini, N., Pupil and pseudopupil in the compound eye of Drosophila. In Information processing in the visual system of Drosophila, Wehner, R., Ed. Springer: Berlin, 1972; pp 75-82; incorporated here in by reference). For quantitation, 20-50 ommatidia per eye of at least 12 eyes were examined per group. The percent normal ommatidia was calculated for each eye and averaged for each sample set. Indatraline suppressed α-synuclein-induced retinal degeneration (FIG. 26A).

Entries after “also recorded” stand apart in the source; their conditions may differ.

For orientation: IC50 means the concentration that gives 50% inhibition.

Regarding `CN[C@@H]1C[C@@H](c2ccc(Cl)c(Cl)c2)c2ccccc21` [Indatraline, indatraline], the “decrease of α-synuclein neurotoxicity in dopaminergic neurons (TH+ cells)” value in test [1] was “diminished toxicity of A53T α-synuclein toward dopaminergic neurons in a dose-dependent manner; also recorded: decreases α-synuclein neurotoxicity”; in test [1] (listed as indatraline) it was “reduced the toxicity of alpha-synuclein; also recorded: decrease α-synuclein neurotoxicity”. For the same molecule, the IC50 in test [1] (Neuron, primary rat embryonic midbrain culture, FIG. 26B, read-out: IC50, reduction of alpha-synuclein toxicity in dopaminergic neurons) is approximately 500 nM. Further, the “binding to α-synuclein and effect on the rate of structure formation/aggregation in the presence of HFIP” value was “bind to α-synuclein and affect the rate of protein aggregation” in test [2]; “binds to α-synuclein and affects the rate of structure formation” in test [2] (listed as indatraline). Also, the “delay of α-synuclein aggregation in aqueous solution” value in test [3] is on record as “delay the initiation of α-synuclein aggregation”; in test [3] (listed as indatraline), “reduced the rate of alpha-synuclein fibrillization (and nucleation); also recorded: delays aggregation of α-synuclein in a dose-dependent manner”. Moreover, the “binding site on alpha-synuclein by solution NMR” value at alpha-synuclein was “binds at a sequence near the C-terminus of alpha-synuclein”. The “suppression of α-synuclein-induced retinal degeneration (percent normal ommatidia)” value in test [4] was “suppresses α-synuclein-induced retinal degeneration; also recorded: decreases α-synuclein-mediated retinal degeneration”; in test [4] (listed as indatraline), “reduced the toxicity of alpha-synuclein; also recorded: suppress α-synuclein-induced retinal degeneration”.
In the case of `CN(C)C1CC(Cc2ccc(Cl)c(Cl)c2)c2ccccc21` (stereo not drawn) [LNK-122], the “binding to α-synuclein and effect on the rate of structure formation/aggregation in the presence of HFIP” value in test [2] is “binds to α-synuclein and affects the rate of structure formation; also recorded: bind to α-synuclein and affect the rate of protein aggregation”.
Still for that read-out and setting: with `c1ccc(CNCC2CC(c3ccccc3)c3ccccc32)cc1` (stereo not drawn) [LNK-1521] the entry was “bind to α-synuclein and affect the rate of protein aggregation”.

The values are drawn from patent US20100292292A1, “Treatment of Neurodegenerative Diseases Using Indatraline Analogs” (LINK MEDICINE CORPORATION, priority 2007, published 2010).
